Test results as given in US20260062408A1, “PRODRUGS OF S[…]” (SYNEX HOLDINGS BV, priority 2022, published 2026).

How the values were obtained:
5-HT2A receptor = biological target: T1, 5-HT2A receptor (Mus musculus, UniProt P35363); settings: 1 mg/kg i.p., 30 min, same assay conditions; data from Halberstadt et al. 2019; cited from earlier work
T1 construct: tissue Jackson Laboratories; host or cells: living male C57BL/6J mice (whole animal, brain)

[1] = Psychedelic effect in volunteers experienced with ALD-52; type: in vivo, humans; settings: human volunteers; for Substitution for ALD-52 / Emax: administered as tartrate salt; for Emax: relative to ALD-52 = 1, read-out: Maximum psychedelic effect produced (ALD-52 = 1); for Duration: duration of effect relative to ALD-52
Protocol: Compounds of the invention were tested on volunteers who were experienced with the use of the related compound ALD-52. For each compound, a solution was prepared by dissolving the tartrate salt in deionized water to produce a concentration either of 1 mg/ml of the tartrate salt, or calculated to be equivalent to 1 mg/ml of the free base. This was either administered directly, or was prepared into standardised dosage units by pipetting 0.1 ml of solution onto a square of perforated blotter paper, which was placed overnight in a desiccator and allowed to evaporate to dryness.

[2] = Preventative treatment of chronic cluster headache attacks in volunteers, eight weeks; type: in vivo, humans; settings: for average self-rated severity of cluster headache attacks: baseline 8.78/10; for average cluster headache attacks per day: baseline 3.44 attacks per day
From the text: Eighteen volunteers were recruited through cluster headache support groups in the Netherlands. Age range of volunteers was between 23 to 67 (average 45.17), 14 males and 4 females. All volunteers had previous experience using psychedelic drugs such as LSD or psilocybin to alleviate cluster headache attacks, as well as prescribed medications including verapamil, prednisone, sumatriptan, topiramate and indomethacin. Volunteers were asked to discontinue use of prescribed medications for five days preceding the commencement of the study and for the eight-week duration.
Participants were supplied standardised 3.0 mg dosage units of SYN-L-017 as the tartrate salt (equivalent to 2.58 mg of SYN-L-017 freebase), measured into capsules for oral administration. These were tested as a preventative for chronic cluster headache attacks. One 3 mg capsule was administered intermittently in a pattern of one day on, two days off for a period of eight weeks (using the protocol described in Karst et al. (Karst M, et al. The non-hallucinogen 2-bromo-lysergic acid diethylamide as preventative treatment for cluster headache: An open, non-randomized case series. Cephalalgia 2010; 30(9):1140-1144. DOI: 10.1177/0333102410363490)) and the volunteers were asked to keep a diary to track the frequency and self-rated severity of cluster headache attacks on a scale of 1-10.

T1 sequence (P35363 whole entry): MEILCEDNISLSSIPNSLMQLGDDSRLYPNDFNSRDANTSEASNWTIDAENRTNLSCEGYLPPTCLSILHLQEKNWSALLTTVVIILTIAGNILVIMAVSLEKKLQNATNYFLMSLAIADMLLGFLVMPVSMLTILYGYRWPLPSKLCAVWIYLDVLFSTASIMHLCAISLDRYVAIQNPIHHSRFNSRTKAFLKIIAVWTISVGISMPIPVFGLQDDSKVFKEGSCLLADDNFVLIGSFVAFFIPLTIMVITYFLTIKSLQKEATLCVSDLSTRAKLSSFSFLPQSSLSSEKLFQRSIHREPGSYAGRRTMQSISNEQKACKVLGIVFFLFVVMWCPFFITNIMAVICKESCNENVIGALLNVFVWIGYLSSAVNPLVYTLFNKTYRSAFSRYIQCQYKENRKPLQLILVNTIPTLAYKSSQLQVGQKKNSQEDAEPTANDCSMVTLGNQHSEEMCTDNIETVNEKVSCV

CCN(CC)C(=O)[C@@H]1C=C2c3cccc4c3c(cn4C(C)=O)C[C@H]2N(C)C1 [ALD-52, 1-acetyl-d-lysergic acid diethylamide]
average HTR count (5-HT2A receptor): 16.6

CCCCCCCCCCCC(=O)n1cc2c3c(cccc31)C1=C[C@@H](C(=O)N(CC)CC)CN(C)[C@@H]1C2 [SYN-L-004, 1-dodecanoyl-lysergic acid diethylamide]
Substitution for ALD-52 [1]: Partial
Emax [1]: 25%
Duration [1]: Slightly longer

CCN(CC)C(=O)[C@@H]1C=C2c3cccc4c3c(cn4C(=O)c3ccccc3C)C[C@H]2N(C)C1 [SYN-L-008, 1-(o-toluoyl)-lysergic acid diethylamide]
Substitution for ALD-52 [1]: Partial
Emax [1]: 25%

CCN(CC)C(=O)[C@@H]1C=C2c3cccc4c3c(cn4S(=O)(=O)C3CC3)C[C@H]2N(C)C1 [SYN-L-014, 1-cyclopropanesulfonyl-lysergic acid diethylamide]
Substitution for ALD-52 [1]: No substitution
Emax [1]: 0%

CCC(=O)n1c(Br)c2c3c(cccc31)C1=C[C@@H](C(=O)N(CC)CC)CN(C)[C@@H]1C2 [SYN-L-017, 1-propionyl-2-bromo-lysergic acid diethylamide]
average self-rated severity of cluster headache attacks ([2]; after four weeks, 3 mg tartrate capsule oral, one day on, two days off): 4.46 /10
average cluster headache attacks per day ([2]; after four weeks): 2.13 attacks per day
side effects consistent with psychedelic effects ([2]; eight-week study): No side effects consistent with psychedelic effects were reported
volunteers reporting no side effects of any significance ([2]; eight-week study): 75%
volunteers reporting side effects including dizziness, nausea, fatigue, difficulty concentrating and insomnia ([2]; eight-week study): 25%
volunteers who thought the drug more effective than their normally used prescribed medication ([2]; eight-week study): 83.33%
perceived severity of side effects ([2]; eight-week study, none rated moderate or severe): mild
average cluster headache attacks per day ([2]; end of the eight weeks): 1.78 attacks per day
average self-rated severity of cluster headache attacks ([2]; end of the eight weeks): 3.72 /10
volunteers reporting improvement of cluster headache symptoms ([2]; overall, eight-week study): 91.67%
Substitution for ALD-52 [1]: No substitution
Emax [1]: 0%

CCN(CC)C(=O)[C@@H]1C=C2c3cccc4c3c(cn4C(=O)C(C)(C)C)C[C@H]2N(C)C1 [SYN-L-024, 1-pivaloyl-lysergic acid diethylamide]
Substitution for ALD-52 [1]: Partial
Emax [1]: 25%
Duration [1]: Shorter duration

CCCCCCCCCCCCCCCCCC(=O)n1cc2c3c(cccc31)C1=C[C@@H](C(=O)N(CC)CC)CN(C)[C@@H]1C2 [SYN-L-042, 1-stearoyl-lyserqic acid diethylamide]
Substitution for ALD-52 [1]: Partial
Emax [1]: 25%

CCCCCCCC/C=C\CCCCCCCC(=O)n1cc2c3c(cccc31)C1=C[C@@H](C(=O)N(CC)CC)CN(C)[C@@H]1C2 [SYN-L-043, 1-oleoyl-lyserqic acid diethylamide]
Substitution for ALD-52 [1]: Partial
Emax [1]: 25%

C=CCN1C[C@H](C(=O)N(C)C(C)C)C=C2c3cccc4c3c(cn4C(=O)CC)C[C@H]21 [SYN-L-073, 1-propionyl-6-allyl-6-nor-lysergic acid methylisopropylamide]
Substitution for ALD-52 [1]: Partial
Emax [1]: 50%

CC(=O)n1cc2c3c(cccc31)C1=C[C@@H](C(=O)N3CCOCC3)CN(C)[C@@H]1C2 [SYN-L-196, 1-acetyl-lysergic acid morpholide]
Substitution for ALD-52 [1]: Partial
Emax [1]: 50%

CCC(=O)n1cc2c3c(cccc31)C1=C[C@@H](C(=O)N(CC)C3CC3)CN(C)[C@@H]1C2 [SYN-L-197, 1-propionyl-lyserqic acid ethylcyclopropylamide]
Substitution for ALD-52 [1]: Partial
Emax [1]: 50%

C=C(C)CN1C[C@H](C(=O)N(CC)CC)C=C2c3cccc4c3c(cn4C(=O)CC)C[C@H]21 [SYN-L-203, 1-propionyl-6-methallyl-6-nor-lysergic acid diethylamide]
Substitution for ALD-52 [1]: Partial
Emax [1]: 25%
